According to ChEMBL document CHEMBL3994626 (Bioorg Med Chem Lett, 2017):

Key:
[1] = Stability in mouse liver microsomes assessed as parent compound remaining at 0.5 uM after 10 mins by high throughput assay; format: ADME, microsome; conditions: read-out: Stability
[2] = Drug uptake in KLH Balb/c mouse model at 0.6 mg/kg, po after 7 hrs; format: ADME, organism-based; conditions: in vivo, read-out: Drug uptake
[3] = Drug uptake in Balb/c mouse KLH model at 0.6 mg/kg, po after 24 hrs; format: ADME, organism-based; conditions: in vivo, read-out: Drug uptake
[4] = Drug uptake in Balb/c mouse KLH model at 3 mg/kg, po after 7 hrs; format: ADME, organism-based; conditions: in vivo, read-out: Drug uptake
[5] = Drug uptake in Balb/c mouse KLH model at 3 mg/kg, po after 24 hrs; format: ADME, organism-based; conditions: in vivo, read-out: Drug uptake
[6] = Drug uptake in Balb/c mouse KLH model at 15 mg/kg, po after 7 hrs; format: ADME, organism-based; conditions: in vivo, read-out: Drug uptake
[7] = Drug uptake in Balb/c mouse KLH model at 15 mg/kg, po after 24 hrs; format: ADME, organism-based; conditions: in vivo, read-out: Drug uptake
[8] = AUC in BALB/c mouse up to 300 mg/kg, qd measured on day 4; format: ADME, organism-based; conditions: in vivo
[9] = Cmax in BALB/c mouse up to 300 mg/kg, qd measured on day 4; format: ADME, organism-based; set-up: dose 300 mg/kg; conditions: in vivo

Question: Which remaining at 10 min, 0.5 µM [1] does the source give for `CC(=O)N1C[C@@H](C)N(c2cccc(-c3cc(-c4ccnn4C4CCOCC4)c4c(N)ncnn34)c2)[C@@H](C)C1` here?
Answer: 54%

Question: What about the concentration at 7 h [2] of the same compound?
Answer: < 6.4 nM

Question: What about the concentration at 24 h [3] of the same compound?
Answer: < 5.6 nM

Question: What about the concentration at 7 h [4] of the same compound?
Answer: 24.9 nM

Question: What about the concentration at 24 h [5] of the same compound?
Answer: < 3.9 nM

Question: And the concentration at 7 h [6]?
Answer: 97.8 nM

Question: What about the concentration at 24 h [7] of the same compound?
Answer: < 7 nM

Question: And the AUC [8]?
Answer: ≤ 520 µM·h

Question: What about the Cmax [9] of the same compound?
Answer: ≤ 55000 nM

Question: Which remaining at 10 min, 0.5 µM [1] does the source give for `CC(=O)N1C[C@@H](C)N(c2cncc(-c3cc(-c4ccnn4C4CCOCC4)c4c(N)ncnn34)c2)[C@@H](C)C1` here?
Answer: 48%

Question: With `CC(=O)N1C[C@@H](C)N(c2cc(F)cc(-c3cc(-c4ccnn4C4CCOCC4)c4c(N)ncnn34)c2)[C@@H](C)C1` as the compound, how does the remaining at 10 min, 0.5 µM [1] read?
Answer: 35%

Question: For `COc1cc(-c2cc(-c3ccnn3C3CCOCC3)c3c(N)ncnn23)cc(N2[C@H](C)CN(C(C)=O)C[C@@H]2C)c1`, which remaining at 10 min, 0.5 µM [1] is on record?
Answer: 14%
